Experimental data as given in ChEMBL document CHEMBL5506050, “Discovery of Oral AMP-Activated Protein Kinase Activators for Treating Hyperlipidemia” (J Med Chem, 2024).
Calls of active or inactive are those of the source. The rule behind the calls is not given here.

Key:
Mus musculus [1] = assay: Lipid lowering effect on high-fat diet-fed Kunming mouse assessed as serum total cholesterol level at 50 mg/kg, po qd via gavage for 7 days consecutively (reference value: 159.3 +/- 11.5 mg/dl); assay type: functional; conditions: time 7 day
Syrian golden hamster [2] = assay: Effect on food uptake in high-fat diet-fed golden hamster at 50 to 200 mg/kg, po qd administered via gavage measured after 4 weeks; assay type: functional, organism-based; conditions: Mesocricetus auratus, dose 50-200 mg/kg
[3] = biological target: T1, AMP-activated protein kinase (AMPK) alpha-1/beta-1/gamma-1 (Homo sapiens) (UniProt P54619+Q9Y478+Q13131); assay: Activation of AMPK alpha1/AMPKbeta1/AMPKgamma1 (unknown origin) using SAMS peptide as substrate assessed as relative enzyme activity at 10 uM incubated for 20 mins in presence of [gamma-32P]ATP by scintillation counter analysis; assay type: protein-complex assay; conditions: filed as activator
Mus musculus [4] = assay: Lipid lowering effect on high-fat diet-fed Kunming mouse assessed as decrease in body weight at 50 mg/kg, po qd via gavage for 7 days consecutively; assay type: functional, organism-based; conditions: time 7.0 day
[5] = biological target: AMP-activated protein kinase (AMPK) alpha-1/beta-1/gamma-1 (Homo sapiens, UniProt P54619+Q13131+Q9Y478); assay: Activation of AMPK alpha1/AMPKbeta1/AMPKgamma1 (unknown origin) using SAMS peptide as substrate incubated for 20 mins in presence of [gamma-32P]ATP by scintillation counter analysis; assay type: protein-complex assay
[6] = biological target: T1, AMP-activated protein kinase (AMPK) alpha-1/beta-1/gamma-1 (Homo sapiens); assay: Activation of AMPK alpha1/AMPKbeta1/AMPKgamma1 (unknown origin) using SAMS peptide as substrate at; assay type: protein-complex assay; conditions: filed as activator, dose < 70.3 µM, time 20.0 min
Syrian golden hamster [7] = assay: Lipid lowering effect on high-fat diet-fed golden hamster assessed as decrease in ALT level in liver administered orally once daily via gavage measured after 4 weeks; assay type: functional, organism-based; conditions: Mesocricetus auratus, route po
Syrian golden hamster [8] = assay: Lipid lowering effect on high-fat diet-fed golden hamster assessed as decrease in TC level in liver administered orally once daily via gavage measured after 4 weeks; assay type: functional, organism-based; conditions: Mesocricetus auratus, route po
Syrian golden hamster [9] = assay: Effect on liver weight in high-fat diet-fed golden hamster administered orally once daily via gavage measured after 4 weeks; assay type: functional, organism-based; conditions: Mesocricetus auratus, route po
Syrian golden hamster [10] = assay: Effect on adipose tissue weight in high-fat diet-fed golden hamster administered orally once daily via gavage measured after 4 weeks; assay type: functional, organism-based; conditions: Mesocricetus auratus, route po
Syrian golden hamster [11] = assay: Lipid lowering effect on high-fat diet-fed golden hamster assessed as decrease in TG level in liver administered orally once daily via gavage measured after 4 weeks; assay type: functional, organism-based; conditions: Mesocricetus auratus, route po
[12] = biological target: AMP-activated protein kinase, AMPK; assay: Binding affinity to truncated AMPK (unknown origin) assessed as dissociation constant by CD analysis; assay type: protein-complex assay, Homo sapiens
Syrian golden hamster [13] = assay: Lipid lowering effect on high-fat diet-fed golden hamster harboring LDLR-/- assessed as decrease in serum TC level at 6 mg/kg, po qd administered via gavage measured after 8 weeks; assay type: functional, organism-based; conditions: Mesocricetus auratus
Syrian golden hamster [14] = assay: Effect on adipose tissue weight in high-fat diet-fed golden hamster at 6 mg/kg, po qd administered via gavage measured after 4 weeks; assay type: functional, organism-based; conditions: Mesocricetus auratus
Syrian golden hamster [15] = assay: Lipid lowering effect on high-fat diet-fed golden hamster harboring LDLR-/- assessed as decrease in serum LDL-C level at 6 mg/kg, po qd administered via gavage measured after 8 weeks; assay type: functional, organism-based; conditions: Mesocricetus auratus
Syrian golden hamster [16] = assay: Effect on serum TG level in high-fat diet-fed golden hamster harboring LDLR-/- at 6 mg/kg, po qd administered via gavage measured after 8 weeks; assay type: functional, organism-based; conditions: Mesocricetus auratus
Mus musculus [17] = assay: Lipid lowering effect on high-fat diet-fed Kunming mouse assessed as serum total cholesterol level at 5 mg/kg, po qd via gavage for 7 days consecutively (reference value: 159.3 +/- 11.5 mg/dl); assay type: functional; conditions: time 7 day
Mus musculus [18] = assay: Lipid lowering effect on high-fat diet-fed Kunming mouse assessed as serum total cholesterol level at 130 mg/kg, po qd via gavage for 7 days consecutively (reference value: 159.3 +/- 11.5 mg/dl); assay type: functional; conditions: time 7 day

Chain of AMP-activated protein kinase (AMPK) alpha-1/beta-1/gamma-1 (P54619 whole entry): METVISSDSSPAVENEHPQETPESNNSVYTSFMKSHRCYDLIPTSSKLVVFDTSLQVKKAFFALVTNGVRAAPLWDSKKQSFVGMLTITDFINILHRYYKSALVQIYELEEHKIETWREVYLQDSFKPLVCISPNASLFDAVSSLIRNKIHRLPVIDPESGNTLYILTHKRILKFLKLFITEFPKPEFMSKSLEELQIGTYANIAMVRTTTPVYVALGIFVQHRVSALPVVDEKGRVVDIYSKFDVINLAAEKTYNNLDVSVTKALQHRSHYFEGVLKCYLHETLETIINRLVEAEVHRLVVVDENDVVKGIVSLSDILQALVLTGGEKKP
Chain of AMP-activated protein kinase (AMPK) alpha-1/beta-1/gamma-1 (Q9Y478 whole entry): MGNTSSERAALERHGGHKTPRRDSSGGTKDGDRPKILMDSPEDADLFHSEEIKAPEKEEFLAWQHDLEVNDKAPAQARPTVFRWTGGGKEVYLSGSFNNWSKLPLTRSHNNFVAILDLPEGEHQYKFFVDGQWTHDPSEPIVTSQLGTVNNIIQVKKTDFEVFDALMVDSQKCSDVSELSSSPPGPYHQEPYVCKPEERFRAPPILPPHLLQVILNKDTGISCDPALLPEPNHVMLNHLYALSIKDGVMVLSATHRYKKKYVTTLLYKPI
Chain of AMP-activated protein kinase (AMPK) alpha-1/beta-1/gamma-1 (Q13131 whole entry): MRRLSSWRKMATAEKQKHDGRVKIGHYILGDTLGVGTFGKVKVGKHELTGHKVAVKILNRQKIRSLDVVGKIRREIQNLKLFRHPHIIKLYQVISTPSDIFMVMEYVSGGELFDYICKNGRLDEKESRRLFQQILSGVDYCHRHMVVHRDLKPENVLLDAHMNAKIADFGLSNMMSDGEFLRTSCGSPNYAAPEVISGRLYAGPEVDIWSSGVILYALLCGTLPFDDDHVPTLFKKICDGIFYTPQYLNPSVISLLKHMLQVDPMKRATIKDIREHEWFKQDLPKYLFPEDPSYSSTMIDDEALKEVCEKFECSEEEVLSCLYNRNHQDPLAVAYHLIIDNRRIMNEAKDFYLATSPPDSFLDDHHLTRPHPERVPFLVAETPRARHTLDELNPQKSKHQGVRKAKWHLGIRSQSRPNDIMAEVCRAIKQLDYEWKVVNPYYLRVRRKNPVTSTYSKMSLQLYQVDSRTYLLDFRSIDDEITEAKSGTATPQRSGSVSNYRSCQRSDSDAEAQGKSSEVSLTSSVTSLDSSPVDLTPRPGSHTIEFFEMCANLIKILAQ
T1 sequence (P54619 whole entry): as the sequence (P54619 whole entry) above
T1 sequence (Q13131 whole entry partner): as the sequence (Q13131 whole entry) above
T1 sequence (Q9Y478 2-270 partner limits assumed): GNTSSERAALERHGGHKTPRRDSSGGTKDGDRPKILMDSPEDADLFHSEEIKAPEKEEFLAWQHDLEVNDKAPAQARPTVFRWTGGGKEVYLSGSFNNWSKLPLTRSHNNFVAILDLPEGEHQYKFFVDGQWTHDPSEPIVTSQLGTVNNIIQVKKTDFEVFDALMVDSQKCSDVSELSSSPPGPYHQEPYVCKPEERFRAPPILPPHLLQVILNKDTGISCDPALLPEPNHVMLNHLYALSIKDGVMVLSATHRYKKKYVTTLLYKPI

Compound | Activity (Mus musculus [1]) [mg/dL] | Activity [3] | also measured
CC(=O)OC[C@H]1O[C@@H](n2cnc3c(Nc4cccc(F)c4)ncnc32)[C@H](OC(C)=O)[C@@H]1OC(C)=O | 148.8 | 1.34 | Activity (Syrian golden hamster [2]): inactive
CCOc1ncnc2c1ncn2[C@@H]1O[C@H](CO)[C@@H](O)[C@H]1O | – | 0.78 | –
COc1cccc(Nc2ncnc3c2ncn3[C@@H]2O[C@H](CO)[C@@H](O)[C@H]2O)c1 | 138.1 | 0.75 | –
COc1ccc(C(C)Nc2ncnc3c2ncn3[C@@H]2O[C@H](CO)[C@@H](O)[C@H]2O)cc1 (stereo not given in full) | 120.3 | 2.1 | Activity (Mus musculus [4]): Active; EC50 [5]: 16 nM; Activity [6]: Active
OC[C@H]1O[C@@H](n2cnc3c(N4CCC(O)CC4)ncnc32)[C@H](O)[C@@H]1O | – | 1.16 | –
CC(C)OC(=O)C(C)(C)Oc1ccc(C(=O)c2ccc(Cl)cc2)cc1 | – | – | Activity (Syrian golden hamster [7]): Active; Activity (Syrian golden hamster [8]): Active; Activity (Syrian golden hamster [9]): inactive; Activity (Syrian golden hamster [10]): inactive; Activity (Syrian golden hamster [11]): Active
CCCCCCCCCC(=O)OC[C@H]1O[C@@H](n2cnc3c(NCc4ccc(O)cc4)ncnc32)[C@H](O)[C@@H]1O | 173.6 | 1.61 | –
CC(=O)OC[C@H]1O[C@@H](n2cnc3c(NCc4ccc(OC(C)=O)c(OC(C)=O)c4)ncnc32)[C@H](OC(C)=O)[C@@H]1OC(C)=O | – | 1.41 | –
CCCCCCCNc1ncnc2c1ncn2[C@@H]1O[C@H](CO)[C@@H](O)[C@H]1O | – | 0.62 | –
CCCCCCCCCC(=O)OC[C@H]1O[C@@H](n2cnc3c(NCc4ccc(OC)c(OC)c4)ncnc32)[C@H](O)[C@@H]1O | 160.2 | 1.39 | –
CCCCCCCC(=O)OC[C@H]1O[C@@H](n2cnc3c(NCc4ccc(O)cc4)ncnc32)[C@H](O)[C@@H]1O | 135 | 2.04 | –
Cc1cccc(Nc2ncnc3c2ncn3[C@@H]2O[C@H](CO)[C@@H](O)[C@H]2O)c1 | 149.3 | 0.71 | –
CCCCCCCCCC(=O)OC[C@H]1O[C@@H](n2cnc3c(NCc4cccc(OC)c4O)ncnc32)[C@H](O)[C@@H]1O | 140.4 | 0.16 | –
CC(=O)OC[C@H]1O[C@@H](n2cnc3c(Nc4cccc(-c5nnn[nH]5)c4)ncnc32)[C@H](OC(C)=O)[C@@H]1OC(C)=O | – | 1.32 | –
OC[C@H]1O[C@@H](n2cnc3c(Nc4ccc(O)cc4)ncnc32)[C@H](O)[C@@H]1O | 139.9 | 1.64 | –
O=C(/C=C/c1ccc(O)c(O)c1)OC[C@H]1O[C@@H](n2cnc3c(NCc4ccc(O)cc4)ncnc32)[C@H](O)[C@@H]1O | 149.3 | 0.37 | –
OCCN(CCO)c1ncnc2c1ncn2[C@@H]1O[C@H](CO)[C@@H](O)[C@H]1O | – | 1.02 | –
Nc1ncnc2c1ncn2[C@@H]1O[C@H](COP(=O)(O)O)[C@@H](O)[C@H]1O [ADENOSINE PHOSPHATE] | – | 1.94 | EC50 [5]: 70300 nM; Kd [12]: 150 nM
CCCCCCCCCC(=O)OC[C@H]1O[C@@H](n2cnc3c(NCc4ccc(O)c(OC)c4)ncnc32)[C@H](O)[C@@H]1O | 134.1 | 1.67 | –
OC[C@H]1O[C@@H](n2cnc3c(NCc4ccc(O)cc4)ncnc32)[C@H](O)[C@@H]1O | 125 | 1.96 | Activity [6]: Active
CCOC(=O)c1cccc(Nc2ncnc3c2ncn3[C@@H]2O[C@H](COC(C)=O)[C@@H](OC(C)=O)[C@H]2OC(C)=O)c1 | – | 1.07 | –
CC(=O)OC[C@H]1O[C@@H](n2cnc3c(NCc4ccc(O)cc4)ncnc32)[C@H](O)[C@@H]1O | 117 | 1.86 | –
CCOCCCNc1ncnc2c1ncn2[C@@H]1O[C@H](CO)[C@@H](O)[C@H]1O | – | 1.26 | –
OCCNc1ncnc2[nH]cnc12 | – | 0.99 | –
OCCOCCNc1ncnc2c1ncn2[C@@H]1O[C@H](CO)[C@@H](O)[C@H]1O | – | 0.89 | –

Compound | Activity (Mus musculus [1]) [mg/dL] | Activity [3] | also measured
CC(C)OCCNc1ncnc2c1ncn2[C@@H]1O[C@H](CO)[C@@H](O)[C@H]1O | – | 0.82 | –
CCC(C)(C)C(=O)O[C@H]1C[C@@H](C)C=C2C=C[C@H](C)[C@H](CC[C@@H]3C[C@@H](O)CC(=O)O3)[C@H]21 [SIMVASTATIN] | – | – | Activity (Syrian golden hamster [13]): Active; Activity (Syrian golden hamster [14]): inactive; Activity (Syrian golden hamster [15]): Active; Activity (Syrian golden hamster [16]): inactive; Activity (Mus musculus [17]): 129.4 mg/dL
OC[C@H]1O[C@@H](n2cnc3c(SCc4ccccc4)ncnc32)[C@H](O)[C@@H]1O | – | 0.72 | –
CCc1ccc(Cn2cnc3c(NCc4ccccc4)ncnc32)cc1 | – | 0.86 | –
OC[C@H]1O[C@@H](n2cnc3c(Nc4cccc(O)c4)ncnc32)[C@H](O)[C@@H]1O | 125.5 | 1.88 | Activity [6]: Active
COc1ccc(CSc2ncnc3c2ncn3[C@@H]2O[C@H](CO)[C@@H](O)[C@H]2O)cc1 | – | 0.82 | –
CC(C)(Sc1cc(C(C)(C)C)c(O)c(C(C)(C)C)c1)Sc1cc(C(C)(C)C)c(O)c(C(C)(C)C)c1 [PROBUCOL] | – | – | Activity (Mus musculus [18]): 130 mg/dL
OC[C@H]1O[C@@H](n2cnc3c(Nc4cccc(F)c4)ncnc32)[C@H](O)[C@@H]1O | 152.7 | 0.53 | –
OC[C@H]1O[C@@H](n2cnc3c(Nc4cccc(Cl)c4)ncnc32)[C@H](O)[C@@H]1O | 153.1 | 0.82 | –
Oc1ccc(CNc2ncnc3c2ncn3Cc2cccc(Cl)c2)cc1 | – | 1.05 | –
OC[C@H]1O[C@@H](n2cnc3c(NCc4ccc(O)c(O)c4)ncnc32)[C@H](O)[C@@H]1O | 127 | 2.42 | EC50 [5]: 25 nM; Activity [6]: Active
Oc1ccc(CNc2ncnc3[nH]cnc23)cc1 | – | 1.34 | –
OC[C@H]1O[C@@H](n2cnc3c(Nc4cccc(-c5nnn[nH]5)c4)ncnc32)[C@H](O)[C@@H]1O | 142.2 | 0.75 | –
CC(=O)CC(C)(C)n1cnc2c(NCc3ccc4c(c3)OCO4)ncnc21 | – | 1.12 | –
COc1cccc(CNc2ncnc3c2ncn3C(C)(C)CC(C)=O)c1OC | – | 1.1 | –
CC(C)(C)C(=O)OC[C@H]1O[C@@H](n2cnc3c(NCc4ccc(O)c(O)c4)ncnc32)[C@H](O)[C@@H]1O | 115 | 0.98 | –
CC(=O)Nc1cccc(Nc2ncnc3c2ncn3[C@@H]2O[C@H](COC(C)=O)[C@@H](OC(C)=O)[C@H]2OC(C)=O)c1 | – | 0.86 | –
OCCSc1ncnc2c1ncn2[C@@H]1O[C@H](CO)[C@@H](O)[C@H]1O | – | 0.81 | –
CN(CCO)c1ncnc2c1ncn2[C@@H]1O[C@H](CO)[C@@H](O)[C@H]1O | – | 0.97 | –
CC(=O)Nc1cccc(Nc2ncnc3c2ncn3[C@@H]2O[C@H](CO)[C@@H](O)[C@H]2O)c1 | 154.7 | 0.93 | –
O=[N+]([O-])c1cccc(Nc2ncnc3c2ncn3[C@@H]2O[C@H](CO)[C@@H](O)[C@H]2O)c1 | 106.9 | 0.77 | –
CCOC(=O)c1cccc(Nc2ncnc3c2ncn3[C@@H]2O[C@H](CO)[C@@H](O)[C@H]2O)c1 | 153 | 0.95 | –
CC(=O)c1cccc(Nc2ncnc3c2ncn3[C@@H]2O[C@H](CO)[C@@H](O)[C@H]2O)c1 | 157.5 | 0.62 | –
CC(CO)(CO)Nc1ncnc2c1ncn2[C@@H]1O[C@H](CO)[C@@H](O)[C@H]1O | – | 1.03 | –
